Several values for one entry are separate records, joined by “and”; a condition that tells them apart may be missing. Identical values can stand only once. Activity calls are given as the source filed them.
Legend:
[1] = target: Cytochrome P450 3A4 (Homo sapiens, UniProt P08684);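 also: CYP3A4 tested as one member of a cytochrome P450 panel screen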
[2] = target: T1, Cytochrome P450 1A2 (Homo sapiens, UniProt P05177);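 also: PubChem cytochrome P450 panel assay, CYP1A2 panel member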
T1 sequence (P05177 whole entry): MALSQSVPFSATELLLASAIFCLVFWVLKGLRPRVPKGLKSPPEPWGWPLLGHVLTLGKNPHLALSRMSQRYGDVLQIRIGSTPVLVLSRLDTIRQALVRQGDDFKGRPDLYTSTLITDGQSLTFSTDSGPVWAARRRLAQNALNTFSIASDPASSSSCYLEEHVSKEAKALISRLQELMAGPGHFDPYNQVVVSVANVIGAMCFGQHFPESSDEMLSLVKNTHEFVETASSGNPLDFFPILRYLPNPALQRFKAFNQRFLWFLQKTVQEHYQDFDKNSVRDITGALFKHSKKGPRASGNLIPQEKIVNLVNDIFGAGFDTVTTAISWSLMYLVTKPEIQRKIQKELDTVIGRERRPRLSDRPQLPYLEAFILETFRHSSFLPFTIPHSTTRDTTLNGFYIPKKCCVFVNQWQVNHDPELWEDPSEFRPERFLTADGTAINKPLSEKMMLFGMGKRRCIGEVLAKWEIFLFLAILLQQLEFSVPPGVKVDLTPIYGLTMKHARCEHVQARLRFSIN

[3] = target: Cytochrome P450 2C9 (Homo sapiens, UniProt P11712)
Chain of Cytochrome P450 2C9 (P11712 whole entry): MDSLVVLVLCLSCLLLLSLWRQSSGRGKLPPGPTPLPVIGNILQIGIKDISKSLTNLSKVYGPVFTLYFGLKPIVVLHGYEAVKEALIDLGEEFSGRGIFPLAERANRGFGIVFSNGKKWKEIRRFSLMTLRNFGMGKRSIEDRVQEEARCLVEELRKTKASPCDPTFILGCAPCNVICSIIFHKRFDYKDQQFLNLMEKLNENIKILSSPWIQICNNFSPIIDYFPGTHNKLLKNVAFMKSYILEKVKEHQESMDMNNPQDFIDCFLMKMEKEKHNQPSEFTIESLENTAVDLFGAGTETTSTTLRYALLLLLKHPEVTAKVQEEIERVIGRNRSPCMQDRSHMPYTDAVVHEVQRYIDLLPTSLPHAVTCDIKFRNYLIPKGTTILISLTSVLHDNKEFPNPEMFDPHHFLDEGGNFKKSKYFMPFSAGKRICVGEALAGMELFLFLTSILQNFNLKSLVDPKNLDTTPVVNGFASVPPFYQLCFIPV

[4] = target: Cytochrome P450 2C19 (Homo sapiens, UniProt P33261); assay: Cytochrome panel assay with activity outcomes. Panel member name: p450-cyp2c19 Compounds with AC50 equal or less than 10 uM are considered active; assay type: functional
Chain of Cytochrome P450 2C19 (P33261 whole entry): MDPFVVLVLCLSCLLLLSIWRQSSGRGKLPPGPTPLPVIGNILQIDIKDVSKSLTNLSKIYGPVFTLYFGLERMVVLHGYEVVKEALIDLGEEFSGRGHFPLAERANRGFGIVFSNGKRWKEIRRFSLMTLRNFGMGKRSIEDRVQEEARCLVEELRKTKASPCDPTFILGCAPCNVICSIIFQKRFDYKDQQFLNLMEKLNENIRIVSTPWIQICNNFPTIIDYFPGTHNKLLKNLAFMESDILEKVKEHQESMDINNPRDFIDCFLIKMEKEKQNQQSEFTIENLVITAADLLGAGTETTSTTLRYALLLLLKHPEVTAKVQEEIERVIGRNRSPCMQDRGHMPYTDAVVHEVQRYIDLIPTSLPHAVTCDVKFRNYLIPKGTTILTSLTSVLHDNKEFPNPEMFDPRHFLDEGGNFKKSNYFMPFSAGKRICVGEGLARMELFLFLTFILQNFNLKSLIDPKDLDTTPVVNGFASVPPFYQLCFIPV

[5] = target: Cytochrome P450 2D6 (Homo sapiens, UniProt P10635);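 also: CYP2D6 member of a cytochrome P450 panel assay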
Chain of Cytochrome P450 2D6 (P10635 whole entry): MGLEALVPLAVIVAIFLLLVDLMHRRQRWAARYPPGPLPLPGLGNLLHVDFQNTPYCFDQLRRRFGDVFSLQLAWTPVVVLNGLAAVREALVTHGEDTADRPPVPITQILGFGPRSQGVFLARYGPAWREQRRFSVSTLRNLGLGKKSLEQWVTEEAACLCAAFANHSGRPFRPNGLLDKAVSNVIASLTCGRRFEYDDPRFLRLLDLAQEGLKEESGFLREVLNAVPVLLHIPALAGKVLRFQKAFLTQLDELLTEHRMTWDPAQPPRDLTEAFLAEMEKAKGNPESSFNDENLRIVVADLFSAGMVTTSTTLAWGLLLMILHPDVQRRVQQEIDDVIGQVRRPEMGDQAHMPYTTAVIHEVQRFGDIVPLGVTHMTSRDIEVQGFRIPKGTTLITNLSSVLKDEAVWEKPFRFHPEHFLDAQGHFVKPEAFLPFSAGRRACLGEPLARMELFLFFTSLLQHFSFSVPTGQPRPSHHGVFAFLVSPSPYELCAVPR

[6] = Trypanosoma cruzi growth suppression in host cells – NIH3T3 host cells, beta-gal luminescence, confirmation (AID 2044); assay type: functional, cell-based;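 also: intracellular parasites grown in NIH/3T3 mouse fibroblasts as host cells; luminescent beta-galactosidase reporter signal from transgenic T. cruzi replicating inside host cells; inhibitors lower the luminescence signal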
[7] = NIH3T3 cell viability loss – ATP luminescence, mouse fibroblasts, counter-screen, dose response (AID 2010); assay type: functional, cell-based;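 also: cells exposed to compound for about 90 hours before reading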
[8] = alpha-synuclein stem-loop luciferase translation blockers – H4 neuroglioma cells, luminescence, confirmation (AID 1988); assay type: functional, cell-based
[9] = luciferase reporter signal suppression in cells – H4 neuroglioma cells, luminescence, dose response (AID 1990); assay type: functional, cell-based
[10] = Luminescence Cell-Based Dose Response HTS to Identify Inhibitors of 5'UTR Stem-Loop Driven Prion Protein mRNA Translation in H4 Neuroglioblastoma Cells. [Related pubchem assays: 1827 (Project Summary), 1813 (Primary HTS)]; assay type: functional
[11] = target: T2, Corticotropin-releasing factor receptor 2/Corticotropin-releasing factor-binding protein (Homo sapiens, UniProt P24387+Q13324); assay: Dose Response confirmation of uHTS hits for small molecule antagonists of the CRF-binding protein and CRF-R2 receptor complex.; assay type: functional; settings: read-out: IC50_Mean
T2 sequence (Q13324 whole entry): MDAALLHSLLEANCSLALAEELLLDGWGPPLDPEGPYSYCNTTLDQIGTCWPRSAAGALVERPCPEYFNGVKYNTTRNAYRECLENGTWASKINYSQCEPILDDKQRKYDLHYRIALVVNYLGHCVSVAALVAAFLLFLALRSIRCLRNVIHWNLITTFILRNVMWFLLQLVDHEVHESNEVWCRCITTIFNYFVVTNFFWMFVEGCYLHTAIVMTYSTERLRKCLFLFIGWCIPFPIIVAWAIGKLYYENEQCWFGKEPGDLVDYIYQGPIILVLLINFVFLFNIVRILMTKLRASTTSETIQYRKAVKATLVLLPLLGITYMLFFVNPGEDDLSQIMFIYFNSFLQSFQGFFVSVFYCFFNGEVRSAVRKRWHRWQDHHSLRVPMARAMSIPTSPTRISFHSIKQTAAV
T2 sequence (P24387 whole entry): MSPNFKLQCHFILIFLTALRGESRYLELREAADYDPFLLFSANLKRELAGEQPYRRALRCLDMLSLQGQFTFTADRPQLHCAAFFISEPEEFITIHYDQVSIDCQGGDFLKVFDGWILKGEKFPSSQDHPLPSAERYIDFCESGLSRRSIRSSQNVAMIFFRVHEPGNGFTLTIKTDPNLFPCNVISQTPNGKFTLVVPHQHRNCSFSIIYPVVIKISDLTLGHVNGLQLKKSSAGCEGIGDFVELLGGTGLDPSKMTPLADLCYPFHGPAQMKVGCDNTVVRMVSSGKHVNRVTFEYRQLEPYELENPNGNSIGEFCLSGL

[12] = target: T2, Corticotropin-releasing factor receptor 2/Corticotropin-releasing factor-binding protein; assay: activators of CRF receptor 2 with binding protein – uHTS hits, confirmation (AID 602473); assay type: functional; settings: read-out: EC50_Mean
[13] = target: T3, Heat shock factor protein 1 (Mus musculus, UniProt P38532); assay: decrease of HSF1-responsive luciferase luminescence – cell-based, NIH3T3, dose retest, confirmation (AID 2382); assay type: functional;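 also: NIH3T3 fibroblasts with HSF1-driven luciferase reporter stressed by proteasome inhibitor MG132; luminescence from HSF1-driven luciferase expression after 8 hours of MG132 stress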
T3 sequence (P38532 whole entry): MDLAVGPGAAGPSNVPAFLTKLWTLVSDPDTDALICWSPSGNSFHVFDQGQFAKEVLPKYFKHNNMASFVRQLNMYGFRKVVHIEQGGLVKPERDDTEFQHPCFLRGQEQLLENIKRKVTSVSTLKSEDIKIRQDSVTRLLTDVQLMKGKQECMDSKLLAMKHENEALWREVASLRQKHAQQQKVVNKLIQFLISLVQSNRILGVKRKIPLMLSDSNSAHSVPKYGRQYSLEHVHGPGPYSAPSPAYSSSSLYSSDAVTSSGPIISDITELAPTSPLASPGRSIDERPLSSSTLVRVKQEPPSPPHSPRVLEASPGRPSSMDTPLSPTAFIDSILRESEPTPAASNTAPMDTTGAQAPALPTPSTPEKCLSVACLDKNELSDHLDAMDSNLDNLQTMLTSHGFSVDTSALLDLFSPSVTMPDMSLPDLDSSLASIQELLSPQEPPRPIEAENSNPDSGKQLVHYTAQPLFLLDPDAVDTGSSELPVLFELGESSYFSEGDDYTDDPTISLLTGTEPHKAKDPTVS

Chain of Cytochrome P450 3A4 (P08684 whole entry): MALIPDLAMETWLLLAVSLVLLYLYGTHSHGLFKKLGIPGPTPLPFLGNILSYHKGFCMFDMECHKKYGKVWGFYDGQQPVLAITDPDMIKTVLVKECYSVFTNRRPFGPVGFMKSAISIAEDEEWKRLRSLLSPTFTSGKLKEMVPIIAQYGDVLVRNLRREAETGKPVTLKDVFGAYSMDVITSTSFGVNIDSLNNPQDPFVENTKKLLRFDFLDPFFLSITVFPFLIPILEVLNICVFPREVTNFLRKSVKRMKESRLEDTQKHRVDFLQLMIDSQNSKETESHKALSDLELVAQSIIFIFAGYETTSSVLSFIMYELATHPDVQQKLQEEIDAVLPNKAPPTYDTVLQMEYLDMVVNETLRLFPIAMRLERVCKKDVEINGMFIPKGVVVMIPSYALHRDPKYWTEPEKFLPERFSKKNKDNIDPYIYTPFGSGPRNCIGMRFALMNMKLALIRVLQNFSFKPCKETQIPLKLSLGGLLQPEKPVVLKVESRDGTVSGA

CSC1=N/C(=C\c2ccc3c(c2)OCO3)C(=O)S1
AC50 [1]: 7.94 µM (inconclusive)

COc1ccc(OC)c(N(CC(=O)N2CCc3ccccc3C2)S(C)(=O)=O)c1
AC50 [2]: 15.8 µM (inconclusive) | AC50 [3]: 12.6 µM (inconclusive) | AC50 ([4]; read-out: AC50): 11.2 µM (inconclusive)

O=C(c1ccncc1)N1CCC2(CC1)CCN(c1ccccn1)CC2
AC50 [2]: 12.6 µM (inconclusive) | AC50 ([4]; read-out: AC50): 1 µM (inconclusive) | AC50 [5]: 31.6 µM (inconclusive)

Cc1ccccc1CS(=O)(=O)CCC(=O)NCCCN1CCN(c2ccccc2F)CC1
AC50 [3]: 5.62 µM (inconclusive) | AC50 [4]: inconclusive

O=C(Nc1cccc(F)c1)N1CCC2(CC1)CCN(C(=O)c1ccncc1)CC2
AC50 [1]: 12.6 µM (inconclusive)

Cc1cc(NC(=O)CSc2ccc3nnc(-c4ccc(F)cc4)n3n2)no1
AC50 [1]: 14.1 µM (inconclusive) | AC50 [3]: 25.1 µM (inconclusive)

Cc1ccc(C)c(NC(=S)N(CCc2nc3cc(C)c(C)cc3[nH]2)Cc2cccnc2)c1
AC50 [2]: 4.47 µM (inconclusive) | EC50 [6]: 0.813 µM (active) | AC50 ([4]; read-out: AC50): 2 µM (inconclusive) | EC50 [7]: > 60 µM (not active)

COc1ccc(CCN=C(NS(=O)(=O)c2ccc(Cl)cc2)c2ccccc2)cc1
EC50 [8]: > 120 µM (not active) | EC50 [9]: > 120 µM (not active) | EC50 [10]: > 120 µM (not active)

COc1cccc(Cn2c(=O)c(-c3cccc(F)c3)nc3cncnc32)c1
AC50 [1]: 7.94 µM (inconclusive) | AC50 [5]: 20 µM (inconclusive)

COc1cc(Br)cc(/C=N/N(CCO)C2=NS(=O)(=O)c3ccccc32)c1OC
EC50 [8]: 18.1 µM (active) | EC50 [9]: 18.5 µM (active) | EC50 [10]: > 120 µM (not active)

COc1ccccc1N1CCN(CCN2C(=O)CC3(CCCC3)CC2=O)CC1 [BMY-7378]
AC50 [1]: 20 µM (inconclusive) and 39.8 µM (inconclusive)

C[n+]1cccc(CNC(=O)C=NO)c1
AC50 ([4]; read-out: AC50): 10 µM (inconclusive)

CCOC(=O)N1CCN(C(=O)c2ccc3nc(SCc4ccc(F)cc4)n(C)c3c2)CC1
AC50 [1]: 39.8 µM (inconclusive) | IC50 [11]: > 47.1 µM (inactive) | EC50 [12]: > 53 µM (inactive)

COc1cc2c(cc1OC)[C@]13CC[N@+]4(C)CC5=CCO[C@H]6CC(=O)N2[C@@H]1[C@@H]6[C@@H]5C[C@]34O
AC50 [1]: 1 µM (inconclusive)

O=C(N/N=C/C=C/c1ccccc1)c1[nH]nc2c1CCC2
EC50 [8]: 3.42 µM (active) | EC50 [9]: 10.6 µM (inconclusive)

N#Cc1cccc(-c2nc(Nc3ccncc3)c3ccccc3n2)c1
AC50 [1]: 0.501 µM (inconclusive) | AC50 [3]: 1.58 µM (inconclusive)

CCNc1ncc2nc(-c3cccs3)c(=O)n(Cc3cccs3)c2n1
AC50 [3]: 39.8 µM (inconclusive) | AC50 ([4]; read-out: AC50): 10 µM (inconclusive)

O=C1N=C(N2CCOCC2)S/C1=C/c1cccs1
AC50 ([4]; read-out: AC50): 25.1 µM (inconclusive)

O=C(NCCNS(=O)(=O)c1ccc(Cl)cc1)c1cc(OCC(F)(F)F)ccc1OCC(F)(F)F
AC50 [2]: 2.82 µM (inconclusive) | AC50 [1]: 7.08 µM (inconclusive) | AC50 [3]: 0.0251 µM (inconclusive) | AC50 [5]: 3.16 µM (inconclusive)

CN(C)Cc1ccccc1-c1nccc(N(C)Cc2ccco2)n1
AC50 [1]: 31.6 µM (inconclusive)

O=C(CCn1nc(-c2ccc(Cl)cc2)c2ccccc2c1=O)NCCN1CCOCC1
AC50 [3]: 17.8 µM (inconclusive) | AC50 ([4]; read-out: AC50): 28.2 µM (inconclusive) | AC50 [5]: 15.8 µM (inconclusive)

COC(=O)c1c(C)ccc2c(O)c3c(cc12)C(=O)c1c2c(cc(O)c1C3=O)[C@@]1(C)O[C@@](C)(O2)[C@@H](O)[C@H](N(C)C)[C@H]1O
AC50 [2]: 5.01 µM (inconclusive) | AC50 [3]: 2.51 µM (inconclusive) | AC50 ([4]; read-out: AC50): 3.98 µM (inconclusive)

Cc1noc(C)c1-c1cncnc1NCc1cccnc1
AC50 ([4]; read-out: AC50): 15.8 µM (inconclusive)

Cc1cc(C)n(-c2nc3c(c(=O)[nH]c(=O)n3C)n2CC(O)COc2ccc(Cl)cc2Cl)n1 (centres undefined)
EC50 [8]: 9.24 µM (active) | EC50 [9]: 11.6 µM (active) | EC50 [10]: 10.3 µM (active)

C/C(=N\NC(=O)c1cccc(C)c1)c1cccc(NC(=O)c2ccco2)c1
AC50 [2]: 14.1 µM (inconclusive) | AC50 [3]: 39.8 µM (inconclusive) | AC50 ([4]; read-out: AC50): 39.8 µM (inconclusive)

O=C(Nc1ccccn1)c1cc(-c2cccc(Cl)c2)nc2ccccc12
EC50 [8]: 15.3 µM (active) | EC50 [9]: > 120 µM (not active) | EC50 [10]: > 120 µM (not active)

COc1ccc(NC(S)=Nc2ccc(C)c(S(=O)(=O)N3CCCCC3)c2)cc1
EC50 [13]: > 195 µM (not active)

O=c1c2c(n3cnnc3n1-c1ccccc1)-c1ccccc1CC21CCCCC1
AC50 [1]: 15.8 µM (inconclusive) | AC50 [4]: inconclusive

Cc1ccc(C(=O)Nc2cccnc2Oc2ccc(Cl)cc2)cc1
EC50 [8]: > 120 µM (not active) | EC50 [9]: 17.6 µM (active) | EC50 [10]: > 120 µM (not active)

O=S(=O)(N1CCCCC1)N1CCN(c2ccc(F)cc2)CC1
EC50 [13]: > 195 µM (not active)

COc1ccc(C(=O)Nc2ccc(OCc3ccccc3)cc2)cc1[N+](=O)[O-]
EC50 [13]: 15.2 µM (active)

CC[C@@]1(O)C(=O)COc2c1cc1n(c2=O)Cc2c-1nc1cccc(C(C)C)c1c2[Si](C)(C)C
AC50 [1]: 15.8 µM (inconclusive)

CCOc1ccc(C2=Nn3c(nnc3-c3ccco3)SC2)cc1
AC50 [1]: 15.8 µM (inconclusive)

CO[C@@H]1/C=C\CC(=O)N[C@@H](C)C(=O)OC[C@@H](OC)[C@H](C)/C=C\CC(=O)OC[C@H]1C
AC50 [1]: 3.98 µM (inconclusive)

— ChEMBL document CHEMBL1201862, “PubChem BioAssay data set” (2004)
